Results: US20210238162A1, “CHEMICAL COMPOUNDS” (GlaxoSmithKline Intellectual Property Development Limited, priority 2015, published 2021)

Assays:
male C57Bl/6N mice = test: In vivo functional response to muscle injury (eccentric contraction-induced muscle fatigue); set-up: species or system mouse; details: FIG. 1
Description: (§1) Under anesthesia, the right hind limb of a mouse is restrained at the knee and the foot attached to a motorized footplate/force transducer. Needle electrodes are inserted into the upper limb, either side of the sciatic nerve and a current sufficient to elicit a maximal muscle contraction is applied. Muscle tension is produced by moving the footplate to lengthen the plantarflexor muscles while the limb is under maximal stimulation. This is repeated 60 times to fatigue the muscles of the lower limb. Anesthesia, limb immobilization and limb stimulation are then repeated at regular intervals to measure maximal isometric force in the recovering limb. 7 to 9 animals are tested for each test condition.

[1] = molecular target: T1, haematopoietic prostaglandin D synthase (H-PGDS) (Homo sapiens, UniProt O60760); test: H-PGDS RapidFire High Throughput Mass Spectrometry Assay; type: biochemical; details: H-PGDS RapidFire MS assay, mean pIC50; read-out: Potency Range (mean pIC50) (converted)
T1 construct: Full length human H-PGDS cDNA (Invitrogen Ultimate ORF IOH13026) was amplified by PCR; made in house; host or cells: E. coli BL21 (DE3*), vector pET22b+
Method in brief: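 PGH2 (~10 μM burst) generated in situ from arachidonic acid by FLAG-tagged human COX-2 (Sf9-expressed), then converted to PGD2 by full-length human His-tagged H-PGDS from E. coli. PGD2 and PGF2α (substrate surrogate) quantified by RapidFire SPE-triple quadrupole MS; percent conversion calculated.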

mdx mice = test: Functional repair following limb muscle injury in mdx mice (FIG. 2); type: in vivo
male C57BL/mdx mice = test: In vivo functional response to eccentric contraction-induced muscle damage in mdx mice (Duchenne Muscular Dystrophy model); set-up: species or system mouse; details: 30 mg/kg BID; 8 month-old male C57BL/mdx mice; FIG. 2
Description: as §1
The force deficit and recovery kinetics following eccentric contraction-induced muscle damage was also evaluated in middle-aged (8 month-old) male C57BL/mdx mice, a preclinical model of Duchenne Muscular Dystrophy. In this dystrophin-null background, the protocol elicited a greater functional deficit (˜75%) and a protracted recovery interval, as shown in the eccentric vehicle controls.

T1 sequence (O60760 whole entry): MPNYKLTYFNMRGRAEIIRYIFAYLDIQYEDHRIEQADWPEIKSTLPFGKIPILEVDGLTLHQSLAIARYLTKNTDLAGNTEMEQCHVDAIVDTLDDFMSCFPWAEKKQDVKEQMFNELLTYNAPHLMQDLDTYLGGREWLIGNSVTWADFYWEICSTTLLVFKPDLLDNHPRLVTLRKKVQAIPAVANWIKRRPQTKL

## CC(C)(O)[C@H]1CC[C@H](NC(=O)c2cnc3cc(OC(F)F)ccc3c2)CC1 [Example 6, 7-(Difluoromethoxy)-N-((trans)-4-(2-hydroxypropan-2-yl)cyclohexyl)quinoline-3-carboxamide]
Male C57Bl/6N mice; PO 1, 3 and 10 mg/kg BID beginning 10 min prior to eccentric contraction challenge
  kinetics of recovery of maximal isometric force: acceleration in the kinetics of recovery
Male C57Bl/6N mice; PO 3 and 10 mg/kg BID
  initial magnitude of the injury (isometric limb force 24-hours following protocol initiation): reduced the initial magnitude of the injury

## O=C(N[C@H]1CCNC1=O)c1cnc2cc(OC(F)F)c(F)cc2c1 [Example 48, (S)-7-(Difluoromethoxy)-6-fluoro-N-(2-oxopyrrolidin-3-yl)quinoline-3-carboxamide]
[1]
  IC50: 10 to 79.4 nM
Mdx mice
  protection and acceleration of functional repair dose response curves of PGDS Inhibition: protection and acceleration of functional repair
Male C57BL/mdx mice
  force deficit at 24-hours: significantly blunted the force deficit at 24-hours
  rate and extent of functional recovery: improved both the rate and extent of functional recovery

## CC(F)(F)c1cc2ncc(C(=O)N[C@H]3CC[C@H](C(C)(C)O)CC3)cc2cc1Cl [Example 231, 6-Chloro-7-(1,1-difluoroethyl)-N-((trans)-4-(2-hydroxypropan-2-yl)cyclohexyl)quinoline-3-carboxamide]
[1]
  IC50: < 10 nM

## O=C(N[C@H]1C[C@](O)(C(F)(F)F)C1)c1cnc2cc(OC(F)F)c(Cl)cc2c1 [Example 232, 6-Chloro-7-(difluoromethoxy)-N-((1s,3s)-3-hydroxy-3-(trifluoromethyl)cyclobutyl)quinoline-3-carboxamide]
[1]
  IC50: < 10 nM

## O=C(N[C@H]1CC[C@](O)(C(F)F)CC1)c1cnc2cc(OC(F)F)c(Cl)cc2c1 [Example 233, 6-Chloro-7-(difluoromethoxy)-N-((1s,4s)-4-(difluoromethyl)-4-hydroxycyclohexyl)quinoline-3-carboxamide]
[1]
  IC50: 10 to 79.4 nM

## O=C(N[C@H]1CC[C@@](O)(C(F)F)CC1)c1cnc2cc(OC(F)F)c(Cl)cc2c1 [Example 234, 6-Chloro-7-(difluoromethoxy)-N-((1r,4r)-4-(difluoromethyl)-4-hydroxycyclohexyl)quinoline-3-carboxamide]
[1]
  IC50: 10 to 79.4 nM

## CC(C)(O)[C@H]1CC[C@H](NC(=O)c2cnc3c(Cl)c(OC(F)F)c(F)cc3c2)CC1 [Example 235, 8-Chloro-7-(difluoromethoxy)-6-fluoro-N-(trans-4-(2-hydroxypropan-2-yl)cyclohexyl)quinoline-3-carboxamide]
[1]
  IC50: 10 to 79.4 nM

## CC(C)(O)[C@H]1CC[C@H](NC(=O)c2cnc3c(F)c(OC(F)F)c(Cl)cc3c2)CC1 [Example 236, 6-Chloro-7-(difluoromethoxy)-8-fluoro-N-(trans-4-(2-hydroxypropan-2-yl)cyclohexyl)quinoline-3-carboxamide]
[1]
  IC50: < 10 nM

## O=C(NC1CCc2ccccc2NC1=O)c1cnc2cc(OC(F)F)c(Cl)cc2c1 (stereo not shown) [Example 237, 6-Chloro-7-(difluoromethoxy)-N-(2-oxo-2,3,4,5-tetrahydro-1H-benzo[b]azepin-3-yl)quinoline-3-carboxamide]
[1]
  IC50: < 10 nM
